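96-well plates; 48 h exposure; 5 concentrations. Endpoints by linear interpolation between flanking doses. Not reached: highest tested concentration assigned. GI50 is the concentration that inhibits growth by half. TGI marks complete inhibition of growth.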

Among the test systems are UO-31 renal; HT29 colon; A549 NSCLC; SK-MEL-28 melanoma; MDA-MB-231 breast; CAKI-1 renal; OVCAR-3 ovarian; OVCAR-8 ovarian; SK-MEL-5 melanoma; COLO 205 colon.
What all share (assay): inhibition of tumour cell growth, NCI panel, 48 h

Take `CCCCCCNC(=O)Oc1ccc(/C(=C(\C)c2ccccc2)c2ccc(OCCN(CC)CC)cc2)cc1`: the GI50 with UO-31 renal was 1.51 µM; in the assay with HT29 colon, 1.17 µM; in the assay on A549 NSCLC, 5.11 µM; in the assay on SK-MEL-28 melanoma, 3.12 µM; with MDA-MB-231 breast, 5.08 µM; in the assay on CAKI-1 renal, 2.74 µM. The GI50 is 4.73 µM with OVCAR-3 ovarian, 6.02 µM with OVCAR-8 ovarian, 3.01 µM with SK-MEL-5 melanoma and 1.17 µM with COLO 205 colon. For the same compound, the TGI in the assay with UO-31 renal amounted to 6.09 µM; in the assay with HT29 colon it was 2.9 µM; with A549 NSCLC, 11.4 µM; in the assay on SK-MEL-28 melanoma, 9.3 µM; with MDA-MB-231 breast, 11.4 µM; with CAKI-1 renal, 8.92 µM. For the same compound, the TGI in the assay with OVCAR-3 ovarian was 11.6 µM; in the assay with OVCAR-8 ovarian, 12.9 µM; in the assay on SK-MEL-5 melanoma, 9.26 µM; in the assay with COLO 205 colon, 2.49 µM.
Regarding `Cc1ccc2c(c1)C(=O)c1c-2n(CCCN=[N+]=[N-])c(=O)c2cc([N+](=O)[O-])ccc12`, the GI50 in the assay with UO-31 renal is 69 µM; in the assay on HT29 colon, 14.7 µM; in the assay with A549 NSCLC, 97.8 µM; in the assay on SK-MEL-28 melanoma it was more than 100 µM; in the assay on MDA-MB-231 breast it was 46.9 µM; with CAKI-1 renal, 53.9 µM. The GI50 in the assay on OVCAR-3 ovarian was more than 100 µM; in the assay on OVCAR-8 ovarian, more than 100 µM; in the assay on SK-MEL-5 melanoma, 97.6 µM; in the assay on COLO 205 colon it was more than 100 µM. Besides, the TGI with UO-31 renal, in the assay with HT29 colon, in the assay with A549 NSCLC, in the assay on SK-MEL-28 melanoma, with MDA-MB-231 breast and with CAKI-1 renal was more than 100 µM throughout. The TGI in the assay on OVCAR-3 ovarian, with OVCAR-8 ovarian, in the assay with SK-MEL-5 melanoma and with COLO 205 colon was more than 100 µM throughout.
Take `Cc1cc(S(=O)(=O)Nc2nc3cc(Cl)ccc3o2)c(SCc2ccccc2)cc1Cl`: the GI50 with UO-31 renal was 22.4 µM; with HT29 colon, 39.9 µM; in the assay with A549 NSCLC it was 23.8 µM; in the assay on SK-MEL-28 melanoma it was 27.3 µM; with MDA-MB-231 breast, 24.2 µM; with CAKI-1 renal it was 22.9 µM. The GI50 was 22 µM in the assay on OVCAR-3 ovarian, 4.18 µM in the assay with OVCAR-8 ovarian, 17.1 µM in the assay on SK-MEL-5 melanoma and 21.2 µM in the assay on COLO 205 colon. Besides, the TGI in the assay on UO-31 renal was 48.5 µM; in the assay with HT29 colon, more than 100 µM; with A549 NSCLC, 59.9 µM; in the assay with SK-MEL-28 melanoma it was 75.1 µM; in the assay with MDA-MB-231 breast it was 50.7 µM; with CAKI-1 renal, 49 µM. Besides, the TGI in the assay with OVCAR-3 ovarian is 45.6 µM; with OVCAR-8 ovarian, 26.1 µM; with SK-MEL-5 melanoma it was 32 µM; in the assay with COLO 205 colon, 44.1 µM.
In the case of `O=C(Nc1cc(-c2cccnc2)nc(NCCCN2CCOCC2)n1)c1cc(Br)cc(C(F)(F)F)c1`, the GI50 in the assay with UO-31 renal is 1.4 µM; with HT29 colon, 2.12 µM; in the assay with A549 NSCLC, 10.1 µM; with SK-MEL-28 melanoma, 1.73 µM; with MDA-MB-231 breast, 1.79 µM; in the assay with CAKI-1 renal, 2.53 µM. In addition, the GI50 was 3.7 µM with OVCAR-3 ovarian, 2.98 µM in the assay on OVCAR-8 ovarian, 1.64 µM in the assay on SK-MEL-5 melanoma and 1.77 µM with COLO 205 colon. The TGI with UO-31 renal turned out to be 3.39 µM; with HT29 colon it was 4.95 µM; in the assay with A549 NSCLC it was 22.2 µM; in the assay on SK-MEL-28 melanoma, 3.48 µM; with MDA-MB-231 breast, 3.93 µM; in the assay with CAKI-1 renal, 10.7 µM. Further, the TGI in the assay on OVCAR-3 ovarian was determined as 12.8 µM; in the assay on OVCAR-8 ovarian, 8.59 µM; with SK-MEL-5 melanoma it was 3.02 µM; in the assay with COLO 205 colon it was 3.47 µM.
Take `COc1cc(/C=N\O)nc(-c2ccccn2)c1`: the TGI in the assay with UO-31 renal was 3.13 µM; in the assay on HT29 colon, more than 100 µM; in the assay on A549 NSCLC, more than 100 µM; with SK-MEL-28 melanoma it was more than 100 µM; with MDA-MB-231 breast, more than 100 µM; with CAKI-1 renal it was 28 µM. Further, the TGI in the assay with OVCAR-3 ovarian and with COLO 205 colon was more than 100 µM in each case.
As for `CCOC(=O)/C(C#N)=C/Nc1ccc(-c2nc3ccccc3[nH]2)cc1`, the GI50 was 21.1 µM with UO-31 renal; 52.7 µM with A549 NSCLC; 22.5 µM in the assay on SK-MEL-28 melanoma; 18.1 µM in the assay with MDA-MB-231 breast; 26.6 µM in the assay with CAKI-1 renal; 20.4 µM with OVCAR-3 ovarian. Besides, the GI50 was more than 100 µM in the assay on OVCAR-8 ovarian, 28.5 µM in the assay with SK-MEL-5 melanoma and 28.8 µM with COLO 205 colon. Also, the TGI with UO-31 renal was more than 100 µM; in the assay with A549 NSCLC, more than 100 µM; in the assay on SK-MEL-28 melanoma, 54.1 µM; in the assay with MDA-MB-231 breast, 45.1 µM; in the assay with CAKI-1 renal, 74.1 µM; in the assay on OVCAR-3 ovarian it was 51.6 µM. Also, the TGI with OVCAR-8 ovarian, with SK-MEL-5 melanoma and with COLO 205 colon was more than 100 µM each time.
For the compound `CCOc1cc(C(C)(C)C)ccc1C1=N[C@@](C)(c2ccc(Cl)cc2)[C@@](C)(c2ccc(Cl)cc2)N1C(=O)N1CCN(CCS(C)(=O)=O)CC1`, the GI50 was 0.361 µM in the assay with UO-31 renal; 2.29 µM in the assay with HT29 colon; 0.975 µM in the assay on A549 NSCLC; 3.75 µM in the assay with SK-MEL-28 melanoma; 2.31 µM in the assay with MDA-MB-231 breast; 0.81 µM in the assay on CAKI-1 renal. The GI50 in the assay on OVCAR-3 ovarian is 3.14 µM; in the assay with OVCAR-8 ovarian it was 4.44 µM; in the assay with SK-MEL-5 melanoma, 1.38 µM; with COLO 205 colon it was 2.03 µM. The TGI is 1.63 µM in the assay with UO-31 renal; 4.74 µM with HT29 colon; 5.31 µM in the assay on A549 NSCLC; 14.3 µM with SK-MEL-28 melanoma; 7.61 µM with MDA-MB-231 breast; 6.48 µM in the assay on CAKI-1 renal. The TGI was 9.33 µM in the assay with OVCAR-3 ovarian, 26.5 µM with OVCAR-8 ovarian, 2.73 µM in the assay on SK-MEL-5 melanoma and 4.01 µM in the assay with COLO 205 colon.

The values are drawn from PubChem BioAssay (NCI).
